Test system: buffered rumen fluid
Experiment: In vitro gas production technique: incubation of alfalfa hays in buffered rumen fluid with added tannins, net ammonium-N in supernatant
Parameters: species or system cows
Conditions: for % Difference from control / Net ammonium-N in supernatant: 72 h; for Net ammonium-N in supernatant: 30 ml buffered rumen fluid, SD in parenthesis; for Effect on ammonia-N (in words): in vitro rumen fluid system, preliminary study
Method: A preliminary in vitro study was conducted to evaluate GA and TA (tannic acid) and to compare this with CT (a source of condensed tannins). The study utilized an in vitro gas production technique that has been established and validated at UC Davis. This system uses canulated cows as a rumen fluid donor. […] The reduction in protein degradation and ammonia nitrogen accumulation was dependant on type of tannins and levels used in each of the experiments. […] [table]

[1] = CUF101, tannin added at 2% DM, Experiment 1
[2] = CUF101, tannin added at 4% DM, Experiment 1
[3] = CUF101, tannin added at 5% DM, Experiment 2
[4] = CUF101, tannin added at 6% DM, Experiment 1
[5] = CUF101, tannin added at 10% DM, Experiment 2
[6] = CUF101, tannin added at 15% DM, Experiment 2
[7] = CUF101 alfalfa hay 200 mg, tannin added at 2% DM, Experiment 1
[8] = CUF101 alfalfa hay 200 mg, tannin added at 4% DM, Experiment 1
[9] = CUF101 alfalfa hay 200 mg, tannin added at 5% DM, Experiment 2
[10] = CUF101 alfalfa hay 200 mg, tannin added at 6% DM, Experiment 1
[11] = CUF101 alfalfa hay 200 mg, tannin added at 10% DM, Experiment 2
[12] = CUF101 alfalfa hay 200 mg, tannin added at 15% DM, Experiment 2
[13] = Sutter alfalfa hay 200 mg, tannin added at 2% DM, Experiment 1
[14] = Sutter alfalfa hay 200 mg, tannin added at 4% DM, Experiment 1
[15] = Sutter alfalfa hay 200 mg, tannin added at 5% DM, Experiment 2
[16] = Sutter alfalfa hay 200 mg, tannin added at 6% DM, Experiment 1
[17] = Sutter alfalfa hay 200 mg, tannin added at 10% DM, Experiment 2
[18] = Sutter alfalfa hay 200 mg, tannin added at 15% DM, Experiment 2
[19] = Sutter, tannin added at 2% DM, Experiment 1
[20] = Sutter, tannin added at 4% DM, Experiment 1
[21] = Sutter, tannin added at 5% DM, Experiment 2
[22] = Sutter, tannin added at 6% DM, Experiment 1
[23] = Sutter, tannin added at 10% DM, Experiment 2
[24] = Sutter, tannin added at 15% DM, Experiment 2

SMILES	% Difference from control [1]	% Difference from control [2]	% Difference from control [3]	% Difference from control [4]	% Difference from control [5] [%]	% Difference from control [6] [%]	Net ammonium-N in supernatant [7]	Net ammonium-N in supernatant [8]	Net ammonium-N in supernatant [9]	Net ammonium-N in supernatant [10]	Net ammonium-N in supernatant [11]	Net ammonium-N in supernatant [12]	Net ammonium-N in supernatant [13]	Net ammonium-N in supernatant [14]	Net ammonium-N in supernatant [15]	Net ammonium-N in supernatant [16]	Net ammonium-N in supernatant [17]	Net ammonium-N in supernatant [18]	% Difference from control [19]	% Difference from control [20] [%]	further results
O=C(O)c1cc(O)c(O)c(O)c1 [GA, 3,4,5-trihydroxybenzoic acid]	+3.20%	+4.92%	+1.68%	+5.63%	−1.33	−3.54	3.610 (0.338) mg	3.670 (0.404) mg	3.450 (0.240) mg	3.695 (0.305) mg	3.348 (0.254) mg	3.273 (0.234) mg	3.540 (0.432) mg	3.608 (0.564) mg	3.415 (0.191) mg	3.575 (0.431) mg	3.348 (0.206) mg	3.298 (0.177) mg	+0.48%	−2.41	% Difference from control [21]: +0.21%; % Difference from control [22]: +1.48%; % Difference from control [23]: −1.76%; % Difference from control [24]: −3.23%; Effect on ammonia-N (in words): did not show any affect
O=C(OC[C@H]1O[C@@H](OC(=O)c2cc(O)c(O)c(OC(=O)c3cc(O)c(O)c(O)c3)c2)[C@H](OC(=O)c2cc(O)c(O)c(OC(=O)c3cc(O)c(O)c(O)c3)c2)[C@@H](OC(=O)c2cc(O)c(O)c(OC(=O)c3cc(O)c(O)c(O)c3)c2)[C@@H]1OC(=O)c1cc(O)c(O)c(OC(=O)c2cc(O)c(O)c(O)c2)c1)c1cc(O)c(O)c(OC(=O)c2cc(O)c(O)c(O)c2)c1 [TA, tannic acid]	−0.66%	−4.00%	−16.23%	−8.52%	−26.23	−48.57	3.475 (0.269) mg	3.358 (0.231) mg	2.830 (0.435) mg	3.200 (0.308) mg	2.503 (0.177) mg	1.745 (0.204) mg	3.168 (0.737) mg	3.250 (0.424) mg	3.030 (0.167) mg	2.998 (0.310) mg	2.543 (0.208) mg	1.888 (0.139) mg	−10.08%	−7.75	% Difference from control [21]: −11.09%; % Difference from control [22]: −14.90%; % Difference from control [23]: −25.38%; % Difference from control [24]: −44.60%; Effect on ammonia-N (in words): effective in reducing ammonia-N
